Results: publication PMC9090415, “Discovery of small molecule inhibitors of Plasmodium falciparum apicoplast DNA polymerase” (Journal of Enzyme Inhibition and Medicinal Chemistry, 2022)

Target: P. falciparum apicoplast DNA polymerase (Pf-apPOL) (Plasmodium falciparum, UniProt Q8ILY1)
Assay: Fluorescence-based high-throughput DNA polymerase assay (molecular beacon), primary screen and dose-response
Assay type: biochemical
Method: The HT assay employs a molecular beacon, a stem-loop DNA template with a Cy3 dye and the Black Hole Quencher on the 3′ and 5′ ends of the DNA, respectively. Pf-apPOL concentration is based on a calculated absorptivity of ε280 = 56750 M^−1 cm^−1. Reactions were carried out at 25 °C, using Corning 3575 […] (well-volume, 20 µL). Assays testing for compound inhibition composed of reaction buffer (pH 7.9 in 50 mM potassium acetate, 20 mM Tris-acetate and 10 mM magnesium acetate), Pf-apPOL (20 nM), DNA substrate (20 nM), dNTPs (6 µM), and compound (10 µM in DMSO). The DNA and nucleotide substrates (dNTPs) were at concentrations of 20 nM and 6 µM, respectively, in the assay. Pf-apPOL was incubated in the reaction buffer with dNTPs and the compound of interest (10 µM, in the assay) at 25 °C for 10 min. The DNA substrate was then added and the reaction was allowed to proceed for 90 min at 25 °C.
Each assay plate contained 16 negative controls (no Pf-apPOL, DMSO present) and 16 positive controls (Pf-apPOL present, no DMSO). The fluorescence of each well was determined using a BioTek Synergy Neo fluorescence plate reader using excitation and emission wavelengths of 555 and 570 nm, respectively.
In the above, Min is the average of fluorescence emission of the negative controls (substrate only), Max the average fluorescence emission from the positive controls (enzyme + substrate), and Test the emission from the assays in the presence of compounds (enzyme + compound + substrates). […] […] The IC50 of each compound was determined using Equation (2): (2) IC50= Vmax/(1+ (I/IC50)^n)
In the above, n measures cooperativity, with n > 1 indicating synergistic binding of more than a single molecule of the compound.
To identify apPOL inhibitors we utilised our previously developed high-throughput DNA polymerase assay. The HT assay is based on a molecular beacon DNA template that forms a stem-loop with a Cy3 dye and the Black Hole Quencher on the 3′ and 5′ ends of the DNA, respectively. DNA polymerase activity extends an annealed primer through the stem region, displacing the fluorophore from the quencher, thereby increasing its fluorescence (Figure 1(A)). The assay accurately recapitulates the kinetic behaviour of apPOL, as measured through more conventional low-throughput gel-based assays. The Z′ factor for the assay described here was 0.9 across all plates (data not shown).
Figure 1. High-throughput screening. (A) The fluorescent-based DNA polymerase assay used to screen the compound libraries. The DNA template strand is a hairpin loop with a primer annealed to the loop. The 3’ end of the primer is 11 bases away from the 6 bp duplex. Strand displacement activity of the DNA polymerase separates the Cy3 dye from the Black hole quencher leading to an increase in fluorescent signal. (B) The high-throughput assay workflow. The DNA polymerase is incubated with […] compound for 10 min prior to addition of the hairpin substrate. The reaction is quenched at 3 different time points and the fluorescent signal is measured and % inhibition is determined using the provided equation.

Sequence of P. falciparum apicoplast DNA polymerase (Pf-apPOL) (Q8ILY1 entry or part of it): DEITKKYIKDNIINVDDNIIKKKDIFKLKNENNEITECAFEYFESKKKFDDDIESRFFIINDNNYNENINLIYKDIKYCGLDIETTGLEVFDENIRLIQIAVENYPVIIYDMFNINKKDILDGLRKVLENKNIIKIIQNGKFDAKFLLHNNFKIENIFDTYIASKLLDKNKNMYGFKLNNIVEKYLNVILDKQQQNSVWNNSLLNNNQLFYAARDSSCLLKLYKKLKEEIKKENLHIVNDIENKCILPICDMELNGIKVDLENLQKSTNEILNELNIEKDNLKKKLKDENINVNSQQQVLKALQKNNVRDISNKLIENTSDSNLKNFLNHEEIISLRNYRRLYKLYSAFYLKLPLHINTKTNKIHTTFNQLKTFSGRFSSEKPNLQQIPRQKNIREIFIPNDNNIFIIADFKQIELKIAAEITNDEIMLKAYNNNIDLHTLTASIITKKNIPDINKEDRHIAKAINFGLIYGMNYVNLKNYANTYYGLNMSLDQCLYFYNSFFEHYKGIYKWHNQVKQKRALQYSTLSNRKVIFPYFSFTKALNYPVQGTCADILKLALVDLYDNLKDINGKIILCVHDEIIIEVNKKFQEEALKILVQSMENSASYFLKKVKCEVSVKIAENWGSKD

O=C(O)c1cccc(N2N=C(C(F)(F)F)/C(=C/c3ccc(-c4ccccc4[N+](=O)[O-])o3)C2=O)c1 [Molecule 100, O=C1N(N=C(/C/1=C/c1ccc(o1)c1ccccc1N(=O)=O)C(F)(F)F)c1cccc(c1)C(=O)O]
% inhibition Apo pol 10' (DRC-1; 10'; concentration 2.5): 26.1484%
% inhibition Apo pol 10' (DRC-1; 10'; concentration 5): 12.0969%
% inhibition Apo pol 10' (DRC-1; 10'; concentration 10): 67.0777%
% inhibition Apo pol 10' (DRC-1; 10'; concentration 20): 85.2952%
% inhibition Apo pol 10' (DRC-1; 10'; concentration 40): 91.4411%
% inhibition Apo pol 10' (DRC-1; 10'; concentration 80): 91.0692%
% inhibition Apol 90' (DRC-1; 90'; concentration 2.5): 19.5679%
% inhibition Apol 90' (DRC-1; 90'; concentration 5): 4.613%
% inhibition Apol 90' (DRC-1; 90'; concentration 10): 58.3032%
% inhibition Apol 90' (DRC-1; 90'; concentration 20): 83.4364%
% inhibition Apol 90' (DRC-1; 90'; concentration 40): 89.1977%
% inhibition Apol 90' (DRC-1; 90'; concentration 80): 89.0036%
% inhibition apPOL 180' (DRC-1; 180'; concentration 2.5): 13.4923%
% inhibition apPOL 180' (DRC-1; 180'; concentration 5): 1.454%
% inhibition apPOL 180' (DRC-1; 180'; concentration 10): 45.1585%
% inhibition apPOL 180' (DRC-1; 180'; concentration 20): 77.5112%
% inhibition apPOL 180' (DRC-1; 180'; concentration 40): 84.5547%
% inhibition apPOL 180' (DRC-1; 180'; concentration 80): 85.8771%
% inhibition Apo pol 5' (DRC-2; 5'; concentration 2.5): 20%
% inhibition Apo pol 5' (DRC-2; 5'; concentration 5): 27%
% inhibition Apo pol 5' (DRC-2; 5'; concentration 10): 47%
% inhibition Apo pol 5' (DRC-2; 5'; concentration 20): 55%
% inhibition Apo pol 5' (DRC-2; 5'; concentration 40): 63%
% inhibition Apo pol 5' (DRC-2; 5'; concentration 80): 64%
% inhibition Apol 40' (DRC-2; 40'; concentration 2.5): 23%
% inhibition Apol 40' (DRC-2; 40'; concentration 5): 30%
% inhibition Apol 40' (DRC-2; 40'; concentration 10): 51%
% inhibition Apol 40' (DRC-2; 40'; concentration 20): 65%
% inhibition Apol 40' (DRC-2; 40'; concentration 40): 76%
% inhibition Apol 40' (DRC-2; 40'; concentration 80): 78%
% inhibition ApPOL 90' (DRC-2; 90'; concentration 2.5): 21%
% inhibition ApPOL 90' (DRC-2; 90'; concentration 5): 29%
% inhibition ApPOL 90' (DRC-2; 90'; concentration 10): 51%
% inhibition ApPOL 90' (DRC-2; 90'; concentration 20): 65%
% inhibition ApPOL 90' (DRC-2; 90'; concentration 40): 77%
% inhibition ApPOL 90' (DRC-2; 90'; concentration 80): 81%
% inhibition apPOL 180' (DRC-2; 180'; concentration 2.5): 14%
% inhibition apPOL 180' (DRC-2; 180'; concentration 5): 20%
% inhibition apPOL 180' (DRC-2; 180'; concentration 10): 43%
% inhibition apPOL 180' (DRC-2; 180'; concentration 20): 60%
% inhibition apPOL 180' (DRC-2; 180'; concentration 40): 77%
% inhibition apPOL 180' (DRC-2; 180'; concentration 80): 84%
% inhibition Apo pol 5' (conc. 2.5; 5'; DRC-2): 20%
% inhibition apPOL 180' (conc. 5; 180'; DRC-2): 20%
% inhibition Apol 40' (conc. 10; 40'; DRC-2): 51%
% inhibition ApPOL 90' (conc. 10; 90'; DRC-2): 51%
% inhibition Apol 40' (conc. 20; 40'; DRC-2): 65%
% inhibition ApPOL 90' (conc. 20; 90'; DRC-2): 65%
% inhibition ApPOL 90' (conc. 40; 90'; DRC-2): 77%
% inhibition apPOL 180' (conc. 40; 180'; DRC-2): 77%
DNA Pol (primary screen value by plate and well; 90 min, 10 µM): 55
DNA Pol (primary screen value of the 186 hits; unit not given; 90 min, 10 µM): 55

CS(=O)(=O)c1cccc(C(=O)Nc2nnc(-c3ccno3)o2)c1 [KU0171319]
DNA Pol (186 hits, value of the hit list (primary screen); unit not given; 90 min, 10 µM): 45
% inhibition Apo pol 10' (DRC-1; 10'; concentration 2.5): 6.657%
% inhibition Apo pol 10' (DRC-1; 10'; concentration 5): 14.8177%
% inhibition Apo pol 10' (DRC-1; 10'; concentration 10): 36.7259%
% inhibition Apo pol 10' (DRC-1; 10'; concentration 20): 44.3674%
% inhibition Apo pol 10' (DRC-1; 10'; concentration 40): 60.0862%
% inhibition Apo pol 10' (DRC-1; 10'; concentration 80): 69.7787%
% inhibition Apol 90' (DRC-1; 90'; concentration 2.5): -3.363%
% inhibition Apol 90' (DRC-1; 90'; concentration 5): 1.476%
% inhibition Apol 90' (DRC-1; 90'; concentration 10): 14.1125%
% inhibition Apol 90' (DRC-1; 90'; concentration 20): 18.6112%
% inhibition Apol 90' (DRC-1; 90'; concentration 40): 31.6807%
% inhibition Apol 90' (DRC-1; 90'; concentration 80): 46.8389%
% inhibition apPOL 180' (DRC-1; 180'; concentration 2.5): -9.274%
% inhibition apPOL 180' (DRC-1; 180'; concentration 5): -6.316%
% inhibition apPOL 180' (DRC-1; 180'; concentration 10): 0.8537%
% inhibition apPOL 180' (DRC-1; 180'; concentration 20): 2.328%
% inhibition apPOL 180' (DRC-1; 180'; concentration 40): 13.3473%
% inhibition apPOL 180' (DRC-1; 180'; concentration 80): 27.8767%
% inhibition Apo pol 5' (DRC-2, 5', concentration 2.5): 8%
% inhibition Apo pol 5' (DRC-2, 5', concentration 5): 13%
% inhibition Apo pol 5' (DRC-2, 5', concentration 10): 24%
% inhibition Apo pol 5' (DRC-2, 5', concentration 20): 29%
% inhibition Apo pol 5' (DRC-2, 5', concentration 40): 32%
% inhibition Apo pol 5' (DRC-2, 5', concentration 80): 22%
% inhibition Apol 40' (DRC-2, 40', concentration 2.5): 1.54%
% inhibition Apol 40' (DRC-2, 40', concentration 5): 4.6%
% inhibition Apol 40' (DRC-2, 40', concentration 10): 13%
% inhibition Apol 40' (DRC-2, 40', concentration 20): 17%
% inhibition Apol 40' (DRC-2, 40', concentration 40): 28%
% inhibition Apol 40' (DRC-2, 40', concentration 80): 35%
% inhibition ApPOL 90' (DRC-2, 90', concentration 2.5): -0.356%
% inhibition ApPOL 90' (DRC-2, 90', concentration 5): 0.372%
% inhibition ApPOL 90' (DRC-2, 90', concentration 10): 8%
% inhibition ApPOL 90' (DRC-2, 90', concentration 20): 11%
% inhibition ApPOL 90' (DRC-2, 90', concentration 40): 21%
% inhibition ApPOL 90' (DRC-2, 90', concentration 80): 34%
% inhibition apPOL 180' (DRC-2, 180', concentration 2.5): -5.4%
% inhibition apPOL 180' (DRC-2, 180', concentration 5): -8%
% inhibition apPOL 180' (DRC-2, 180', concentration 10): -3%
% inhibition apPOL 180' (DRC-2, 180', concentration 20): -2.43%
% inhibition apPOL 180' (DRC-2, 180', concentration 40): 7.43%
% inhibition apPOL 180' (DRC-2, 180', concentration 80): 26%
% inhibition Apo pol 5' (DRC-2; 5'; concentration 2.5): 8%
% inhibition Apo pol 5' (DRC-2; 5'; concentration 5): 13%
% inhibition Apol 40' (DRC-2; 40'; concentration 10): 13%
% inhibition ApPOL 90' (DRC-2; 90'; concentration 10): 8%
DNA Pol (primary screen value, 'DNA Pol' only; 90 min, 10 µM): 45
